We go through 38 molecules from patent US10703765B2 (priority 2014, dated 2020).

Structures can show the parent of a compound that is named as a salt.

The target of one assay is human σ1 receptor (Homo sapiens, UniProt Q99720). The assay can be described thus: biochemical.
Sequence of human σ1 receptor (Q99720 whole entry): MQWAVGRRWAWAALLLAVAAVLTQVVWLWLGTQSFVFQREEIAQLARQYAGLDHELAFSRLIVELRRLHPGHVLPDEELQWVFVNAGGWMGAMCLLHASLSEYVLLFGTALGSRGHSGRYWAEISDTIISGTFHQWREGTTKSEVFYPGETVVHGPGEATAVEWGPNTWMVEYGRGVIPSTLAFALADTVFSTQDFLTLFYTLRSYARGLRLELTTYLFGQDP
Details: not given
On the set-up: μ and σ1 dual binding: key to the marks not given beside the values. It counts as binding.
On to `CC(C)C1OC2(CCN(CCc3csc(N)n3)CC2)CN(c2ccccc2F)C1=O` (centres unmarked) [Example 306, 9-(2-(2-aminothiazol-4-yl)ethyl)-4-(2-fluorophenyl)-2-isopropyl-1-oxa-4,9-diazaspiro[5.5]undecan-3-one dihydrochloride], for which the “μ and σ1 dual binding” value is recorded as “++”.

`Nc1nc(CCN2CCC3(CC2)CN(c2ccccc2)C(=O)C2(CC2)O3)cs1` [Example 307, 8-[2-(2-aminothiazol-4-yl)ethyl]-12-phenyl-4-oxa-8,12-diazadispiro[2.1.5.3]tridecan-13-one dihydrochloride] returned a Ki of under 500 nM.

`Nc1nc(CCN2CCC3(CC2)CN(Cc2ccc(C(F)(F)F)cn2)C(=O)C2(CC2)O3)cs1` [Example 308, 8-[2-(2-aminothiazol-4-yl)ethyl]-12-{[5-(trifluoromethyl)pyridin-2-yl]methyl}-4-oxa-8,12-diazadispiro[2.1.5.3]tridecan-13-one trihydrochloride]: the “μ and σ1 dual binding” value was “++”.

With `O=C1C(CC2CCOCC2)OC2(CCN(CCc3ccccc3)CC2)CN1c1ccccc1F` (centres unmarked) [Example 311, 4-(2-fluorophenyl)-9-phenethyl-2-((tetrahydro-2H-pyran-4-yl)methyl)-1-oxa-4,9-diazaspiro[5.5]undecan-3-one hydrochloride], the Ki is under 500 nM.

Turning to `CC(C)C1OC2(CCN(CCc3ccccc3)CC2)CN(c2ccccc2F)C1=O` (centres unmarked) [Example 312, 4-(2-fluorophenyl)-2-isopropyl-9-phenethyl-1-oxa-4,9-diazaspiro[5.5]undecan-3-one hydrochloride], the Ki was under 100 nM.

As to `CC(C)C1OC2(CCN(CCc3ccccn3)CC2)CN(c2ccccc2F)C1=O` (centres unmarked) [Example 313, 4-(2-fluorophenyl)-2-isopropyl-9-(2-(pyridin-2-yl)ethyl)-1-oxa-4,9-diazaspiro[5.5]undecan-3-one hydrochloride], the Ki was under 500 nM.

Consider `COCCCC1OC2(CCN(CCc3ccccc3)CC2)CN(c2ccccc2F)C1=O` (centres unmarked) [Example 314, 4-(2-fluorophenyl)-2-(3-methoxypropyl)-9-phenethyl-1-oxa-4,9-diazaspiro[5.5]undecan-3-one hydrochloride], for which the Ki was under 500 nM.

Take `COCC1CN(c2ccccc2)CC2(CCN(CCc3ccccc3)CC2)O1` (centres unmarked) [Example 319, 2-(methoxymethyl)-9-phenethyl-4-phenyl-1-oxa-4,9-diazaspiro[5.5]undecane hydrochloride]: the Ki is under 500 nM.

As to `COc1cccc(CCN2CCC3(CC2)CN(c2ccccc2)CCO3)c1.Cl` [Example 320, 9-(3-methoxyphenethyl)-4-phenyl-1-oxa-4,9-diazaspiro[5.5]undecane hydrochloride], the “μ and σ1 dual binding” value is reported as “++”.

`OCCC1CN(c2ccccc2)CC2(CCN(CCc3ccccc3)CC2)O1` (centres unmarked) [Example 323, 2-(9-phenethyl-4-phenyl-1-oxa-4,9-diazaspiro[5.5]undecan-2-yl)ethanol hydrochloride] had a Ki of under 500 nM.

`CC1CN(Cc2ccn(C)n2)CC2(CCN(CCc3ccccc3)CC2)O1` (centres unmarked) [Example 328, 2-methyl-4-((1-methyl-1H-pyrazol-3-yl)methyl)-9-phenethyl-1-oxa-4,9-diazaspiro[5.5]undecane dihydrochloride]: the “μ and σ1 dual binding” value is listed as “++”.

Consider `CC1CN(CCc2cccnc2)CC2(CCN(CCc3ccccc3)CC2)O1` (centres unmarked) [Example 331, 2-methyl-9-phenethyl-4-(2-(pyridin-3-yl)ethyl)-1-oxa-4,9-diazaspiro[5.5]undecane hydrochloride], for which the “μ and σ1 dual binding” value was “++”.

Turning to `COc1cccc(N2CCOC3(CCN(CCc4ccccc4)CC3)C2)c1.Cl` [Example 333, 4-(3-methoxyphenyl)-9-phenethyl-1-oxa-4,9-diazaspiro[5.5]undecane hydrochloride], the “μ and σ1 dual binding” value is listed as “++”.

Consider `COc1ccccc1CCN1CCC2(CC1)CN(c1ccccc1)CCO2.Cl` [Example 334, 9-(2-methoxyphenethyl)-4-phenyl-1-oxa-4,9-diazaspiro[5.5]undecane hydrochloride], for which the “μ and σ1 dual binding” value is “++”.

With `c1ccc(CCN2CCC3(CC2)CN(CCc2ccccc2)CCO3)cc1` [Example 337, 4,9-diphenethyl-1-oxa-4,9-diazaspiro[5.5]undecane dihydrochloride], the “μ and σ1 dual binding” value is listed as “++”.

Regarding `CC1COC2(CCN(CCc3ccccc3)CC2)CN1c1ccccc1` (centres unmarked) [Example 340, 3-methyl-9-phenethyl-4-phenyl-1-oxa-4,9-diazaspiro[5.5]undecane hydrochloride], the Ki was under 500 nM.

Staying with this assay, now noted: combined class from Ki-σ1 (human σ1 receptor, A1) and Ki-μ (human μ-opioid receptor, A2) radioligand binding.
As to `Oc1ccccc1CCN1CCC2(CC1)CN(c1ccccc1)CCO2` [Example 321, 2-(2-(4-phenyl-1-oxa-4,9-diazaspiro[5.5]undecan-9-yl)ethyl)phenol], the “μ and σ1 dual binding” value is recorded as “++”.

For the molecule `COc1ccc(CCN2CCC3(CC2)CN(c2ccccc2)CCO3)cc1` [Example 332, 9-(4-methoxyphenethyl)-4-phenyl-1-oxa-4,9-diazaspiro[5.5]undecane], the “μ and σ1 dual binding” value was “++”.

With `O=C1N(c2cccnc2C(F)(F)F)CC2(CCN(CCc3cc(F)ccc3F)CC2)OC12CC2` [Example 341, 8-(2,5-difluorophenethyl)-12-(2-(trifluoromethyl)pyridin-3-yl)-4-oxa-8,12-diazadispiro[2.1.5.3]tridecan-13-one], the “μ and σ1 dual binding” value is recorded as “++”.

The same assay, now with this note: read-out: μ and σ1 dual binding.
With `CC1OC2(CCN(CCn3nccc3N)CC2)CN(c2ccccc2)C1=O` (centres unmarked) [Example 305, 9-(2-(5-amino-1H-pyrazol-1-yl)ethyl)-2-methyl-4-phenyl-1-oxa-4,9-diazaspiro[5.5]undecan-3-one hydrochloride], the Ki was over 500 nM.

Turning to `CC1OC2(CCN(CCc3csc(N)n3)CC2)CN(c2cnccc2C(F)(F)F)C1=O` (centres unmarked) [Example 309, 9-(2-(2-aminothiazol-4-yl)ethyl)-2-methyl-4-(4-(trifluoromethyl)pyridin-3-yl)-1-oxa-4,9-diazaspiro[5.5]undecan-3-one], the Ki was over 500 nM.

Consider `O=C1N(CCO)CC2(CCN(CCc3ccccc3)CC2)OC12CC2` [Example 310, 12-(2-hydroxyethyl)-8-phenethyl-4-oxa-8,12-diazadispiro[2.1.5.3]tridecan-13-one hydrochloride], for which the Ki was over 500 nM.

Regarding `CC1OC2(CCN(CC(=O)N(C)c3ccccc3)CC2)CN(c2ccccc2)C1=O` (centres unmarked) [Example 315, N-methyl-2-(2-methyl-3-oxo-4-phenyl-1-oxa-4,9-diazaspiro[5.5]undecan-9-yl)-N-phenylacetamide hydrochloride], the Ki is over 500 nM.

In the case of `Oc1cccc(N2CCOC3(CCN(CCc4ccccc4)CC3)C2)c1` [Example 316, 3-(9-phenethyl-1-oxa-4,9-diazaspiro[5.5]undecan-4-yl)phenol], the Ki was under 500 nM.

As for `c1ccc(CCN2CCC3(CC2)CN(c2ccccc2)CCO3)cc1` [Example 317, 9-phenethyl-4-phenyl-1-oxa-4,9-diazaspiro[5.5]undecane], the Ki was under 500 nM.

For the molecule `Oc1cccc(N2CCOC3(CCN(Cc4ccccc4)CC3)C2)c1` [Example 318, 3-(9-benzyl-1-oxa-4,9-diazaspiro[5.5]undecan-4-yl)phenol], the Ki is under 500 nM.

With `Oc1cccc(CCN2CCC3(CC2)CN(c2ccccc2)CCO3)c1` [Example 322, 3-(2-(4-phenyl-1-oxa-4,9-diazaspiro[5.5]undecan-9-yl)ethyl)phenol], the Ki is under 500 nM.

On to `c1ccc(CCN2CCC3(CC2)CN(Cc2ccccc2)CCO3)cc1` [Example 324, 4-benzyl-9-phenethyl-1-oxa-4,9-diazaspiro[5.5]undecane dihydrochloride], for which the Ki is under 100 nM.

Turning to `c1ccc(CCN2CCC3(CC2)CN(Cc2cscn2)CCO3)cc1` [Example 325, 9-phenethyl-4-(thiazol-4-ylmethyl)-1-oxa-4,9-diazaspiro[5.5]undecane dihydrochloride], the Ki was under 500 nM.

Take `COc1ccccc1CCN1CCC2(CC1)CN(Cc1ccccn1)CCO2` [Example 326, 9-(2-methoxyphenethyl)-4-(pyridin-2-ylmethyl)-1-oxa-4,9-diazaspiro[5.5]undecane]: the Ki was under 500 nM.

Take `CC1CN(Cc2nccn2C)CC2(CCN(CCc3ccccc3)CC2)O1` (centres unmarked) [Example 327, 2-methyl-4-((1-methyl-1H-imidazol-2-yl)methyl)-9-phenethyl-1-oxa-4,9-diazaspiro[5.5]undecane dihydrochloride]: the Ki was under 500 nM.

Consider `Oc1ccccc1CCN1CCC2(CC1)CN(Cc1ccccn1)CCO2` [Example 329, 2-(2-(4-(pyridin-2-ylmethyl)-1-oxa-4,9-diazaspiro[5.5]undecan-9-yl)ethyl)phenol hydrochloride], for which the Ki is under 100 nM.

For the molecule `CC1CN(Cc2ccccn2)CC2(CCN(CCc3ccccc3)CC2)O1` (centres unmarked) [Example 330, 2-methyl-9-phenethyl-4-(pyridin-2-ylmethyl)-1-oxa-4,9-diazaspiro[5.5]undecane hydrochloride], the Ki was under 100 nM.

As to `CC1CN(Cc2ccccc2)CC2(CCN(CCc3ccccc3)CC2)O1` (centres unmarked) [Example 335, 4-benzyl-2-methyl-9-phenethyl-1-oxa-4,9-diazaspiro[5.5]undecane dihydrochloride], the Ki was under 100 nM.

Regarding `c1ccc(CCN2CCC3(CC2)CN(Cc2ccccn2)CCO3)cc1` [Example 336, 9-phenethyl-4-(pyridin-2-ylmethyl)-1-oxa-4,9-diazaspiro[5.5]undecane dihydrochloride], the Ki was under 100 nM.

On to `Nc1cccc(CCN2CCC3(CC2)CN(Cc2ccccc2)CCO3)c1` [Example 338, 3-(2-(4-benzyl-1-oxa-4,9-diazaspiro[5.5]undecan-9-yl)ethyl)aniline], for which the Ki was over 500 nM.

In the case of `CC(=O)Nc1cccc(CCN2CCC3(CC2)CN(Cc2ccccc2)CCO3)c1` [Example 339, N-(3-(2-(4-benzyl-1-oxa-4,9-diazaspiro[5.5]undecan-9-yl)ethyl)phenyl)acetamide], the Ki was under 100 nM.

As for `O=C1N(c2cnccc2C(F)(F)F)CC2(CCN(CCc3cc(F)ccc3F)CC2)OC12CC2` [Example 342, 8-(2,5-difluorophenethyl)-12-(4-(trifluoromethyl)pyridin-3-yl)-4-oxa-8,12-diazadispiro[2.1.5.3]tridecan-13-one], the Ki was under 500 nM.
